Each block holds one compound with its values, some of them ahead of it. Active and inactive are the calls of the source. No cut-off for these calls is given here.
Columns and labels:
[1] = target: T1, Dual specificity tyrosine-phosphorylation-regulated kinase 1A (Rattus norvegicus, UniProt Q63470); experiment: Inhibition of rat recombinant 6xHis-tagged DYRK1A catalytic domain (1 to 502) expressed in Escherichia coli BL21 (DE3) using N-terminal fluorescein coupled KISGRLSPIMTEQ as substrate after 30 mins by HPLC analysis in presence of 50 uM ATP
[2] = target: T2, Dual specificity tyrosine-phosphorylation-regulated kinase 1A (Homo sapiens, UniProt Q13627); experiment: Inhibition of human GST-fused DYRK1A expressed in Escherichia coli using KISGRLSPIMTEQ as substrate
[3] = target: T2, Dual specificity tyrosine-phosphorylation-regulated kinase 1A; experiment: Inhibition of DYRK1A (unknown origin) by HPLC analysis
[4] = Cytotoxicity against human KB cells assessed as growth inhibition at 10^-6 M after 72 hrs by resazurin dye-based fluorimetric analysis relative to control; format: cell-based; conditions: read-out: GI
[5] = Cytotoxicity against human KB cells assessed as growth inhibition at 10^-5 M after 72 hrs by resazurin dye-based fluorimetric analysis relative to control; format: cell-based; conditions: read-out: GI
[6] = target: T1, Dual specificity tyrosine-phosphorylation-regulated kinase 1A; experiment: Competitive inhibition of rat recombinant 6xHis-tagged DYRK1A catalytic domain (1 to 502) expressed in Escherichia coli BL21 (DE3) using ATP as substrate by Michaelis-Menten plot analysis
[7] = target: T1, Dual specificity tyrosine-phosphorylation-regulated kinase 1A; experiment: Inhibition of rat recombinant 6xHis-tagged DYRK1A catalytic domain (1 to 502) expressed in Escherichia coli BL21 (DE3) using N-terminal fluorescein coupled KISGRLSPIMTEQ as substrate after 30 mins by HPLC analysis in presence of 1 mM ATP
[8] = target: High affinity nerve growth factor receptor (Homo sapiens) (UniProt P04629); experiment: Inhibition of human TRKA at 5 x 10^-8 M
[9] = target: Serine/threonine-protein kinase pim-1 (Homo sapiens) (UniProt P11309); experiment: Inhibition of human Pim1 kinase at 5 x 10^-8 M
[10] = target: Glycogen synthase kinase-3 beta (Homo sapiens) (UniProt P49841); experiment: Inhibition of human GSK-3beta at 5 x 10^-8 M
[11] = target: Mitogen-activated protein kinase 1 (Homo sapiens) (UniProt P28482); experiment: Inhibition of human ERK2 at 5 x 10^-8 M
[12] = target: RAC-alpha serine/threonine-protein kinase (Homo sapiens) (UniProt P31749); experiment: Inhibition of human AKT1 at 5 x 10^-8 M
[13] = target: T3, Dual specificity tyrosine-phosphorylation-regulated kinase 3 (Homo sapiens) (UniProt O43781); experiment: Inhibition of human DYRK3 at 5 x 10^-8 M relative to control
T3 sequence (whole entry): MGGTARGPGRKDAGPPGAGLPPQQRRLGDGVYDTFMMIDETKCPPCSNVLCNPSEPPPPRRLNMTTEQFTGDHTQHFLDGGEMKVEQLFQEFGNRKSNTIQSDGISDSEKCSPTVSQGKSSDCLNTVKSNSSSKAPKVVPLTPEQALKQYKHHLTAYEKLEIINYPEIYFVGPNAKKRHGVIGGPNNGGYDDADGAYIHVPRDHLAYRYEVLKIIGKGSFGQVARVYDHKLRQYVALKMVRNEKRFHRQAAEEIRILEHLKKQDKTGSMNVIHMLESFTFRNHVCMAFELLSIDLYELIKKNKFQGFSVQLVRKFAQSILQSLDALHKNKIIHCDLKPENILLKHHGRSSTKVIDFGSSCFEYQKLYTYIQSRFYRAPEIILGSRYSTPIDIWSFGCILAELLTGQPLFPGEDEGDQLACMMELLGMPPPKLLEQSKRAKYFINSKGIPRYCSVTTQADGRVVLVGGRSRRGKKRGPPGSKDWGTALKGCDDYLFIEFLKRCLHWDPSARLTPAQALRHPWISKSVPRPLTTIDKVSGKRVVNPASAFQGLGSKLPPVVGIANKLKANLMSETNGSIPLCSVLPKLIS

[14] = target: T4, Dual specificity tyrosine-phosphorylation-regulated kinase 2 (Homo sapiens) (UniProt Q92630); experiment: Inhibition of human DYRK2 at 5 x 10^-8 M relative to control
T4 sequence (whole entry): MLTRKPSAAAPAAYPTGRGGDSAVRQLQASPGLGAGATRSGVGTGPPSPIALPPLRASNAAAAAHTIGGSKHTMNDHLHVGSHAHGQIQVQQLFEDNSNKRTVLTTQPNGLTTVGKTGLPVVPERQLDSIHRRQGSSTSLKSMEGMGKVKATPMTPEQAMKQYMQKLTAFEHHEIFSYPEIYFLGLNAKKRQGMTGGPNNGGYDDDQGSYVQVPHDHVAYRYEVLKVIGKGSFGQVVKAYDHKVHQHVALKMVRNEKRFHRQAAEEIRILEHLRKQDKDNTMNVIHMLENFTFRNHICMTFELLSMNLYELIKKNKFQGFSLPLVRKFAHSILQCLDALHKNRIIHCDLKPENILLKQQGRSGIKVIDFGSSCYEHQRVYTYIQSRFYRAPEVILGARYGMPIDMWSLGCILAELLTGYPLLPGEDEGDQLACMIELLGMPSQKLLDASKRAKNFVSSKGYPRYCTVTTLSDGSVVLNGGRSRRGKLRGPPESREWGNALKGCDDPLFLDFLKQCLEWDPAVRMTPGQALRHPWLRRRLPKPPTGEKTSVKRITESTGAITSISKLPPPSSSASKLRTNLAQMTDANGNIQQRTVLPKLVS

[15] = target: CDK2/Cyclin A2 (Homo sapiens) (UniProt P24941+P20248); experiment: Inhibition of human CDK2/cyclin A at 5 x 10^-8 M relative to control; format: protein-complex assay
[16] = target: Casein kinase I isoform alpha (Homo sapiens) (UniProt P48729); experiment: Inhibition of human CK1alpha at 5 x 10^-8 M relative to control
Casein kinase I isoform alpha (Homo sapiens), sequence (P48729 2-337 limits assumed): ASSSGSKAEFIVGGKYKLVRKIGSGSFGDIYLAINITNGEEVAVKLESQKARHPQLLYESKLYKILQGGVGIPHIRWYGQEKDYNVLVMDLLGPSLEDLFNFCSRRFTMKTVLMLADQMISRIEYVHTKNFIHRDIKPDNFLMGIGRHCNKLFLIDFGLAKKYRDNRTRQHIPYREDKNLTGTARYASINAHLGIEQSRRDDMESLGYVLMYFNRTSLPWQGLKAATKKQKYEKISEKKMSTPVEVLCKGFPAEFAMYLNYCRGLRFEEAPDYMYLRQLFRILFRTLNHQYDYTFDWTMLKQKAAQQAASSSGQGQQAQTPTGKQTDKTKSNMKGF

Glycogen synthase kinase-3 beta (Homo sapiens), sequence (P49841 whole entry, looked up): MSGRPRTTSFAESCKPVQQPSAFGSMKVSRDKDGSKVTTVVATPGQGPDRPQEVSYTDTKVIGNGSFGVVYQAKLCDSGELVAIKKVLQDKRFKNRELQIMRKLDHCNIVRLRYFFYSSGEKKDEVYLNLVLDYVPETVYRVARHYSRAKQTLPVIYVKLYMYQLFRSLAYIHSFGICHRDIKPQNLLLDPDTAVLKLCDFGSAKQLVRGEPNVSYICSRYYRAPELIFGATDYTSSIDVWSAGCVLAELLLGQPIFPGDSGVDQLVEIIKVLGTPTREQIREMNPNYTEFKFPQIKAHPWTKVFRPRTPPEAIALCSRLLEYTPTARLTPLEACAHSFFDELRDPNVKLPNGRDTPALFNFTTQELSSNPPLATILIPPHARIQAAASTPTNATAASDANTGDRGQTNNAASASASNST
Serine/threonine-protein kinase pim-1 (Homo sapiens), sequence (P11309 whole entry, looked up): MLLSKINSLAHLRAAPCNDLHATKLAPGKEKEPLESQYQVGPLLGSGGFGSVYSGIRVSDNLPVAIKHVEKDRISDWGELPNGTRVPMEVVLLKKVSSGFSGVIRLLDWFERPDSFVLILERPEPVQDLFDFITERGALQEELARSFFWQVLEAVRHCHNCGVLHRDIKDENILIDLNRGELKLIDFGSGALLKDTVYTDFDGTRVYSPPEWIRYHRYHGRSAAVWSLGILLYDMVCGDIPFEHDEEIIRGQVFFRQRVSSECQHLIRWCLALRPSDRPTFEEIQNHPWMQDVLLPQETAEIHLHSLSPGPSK
Mitogen-activated protein kinase 1 (Homo sapiens), sequence (P28482 whole entry): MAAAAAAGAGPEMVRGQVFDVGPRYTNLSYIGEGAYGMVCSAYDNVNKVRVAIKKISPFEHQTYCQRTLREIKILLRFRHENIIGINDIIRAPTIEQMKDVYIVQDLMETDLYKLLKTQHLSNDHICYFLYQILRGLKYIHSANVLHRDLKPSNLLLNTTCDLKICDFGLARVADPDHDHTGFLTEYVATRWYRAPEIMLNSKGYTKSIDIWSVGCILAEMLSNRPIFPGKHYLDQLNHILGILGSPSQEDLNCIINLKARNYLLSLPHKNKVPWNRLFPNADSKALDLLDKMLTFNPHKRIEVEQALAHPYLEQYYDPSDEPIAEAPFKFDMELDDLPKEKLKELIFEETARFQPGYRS
High affinity nerve growth factor receptor (Homo sapiens), sequence (P04629 33-796 limits assumed): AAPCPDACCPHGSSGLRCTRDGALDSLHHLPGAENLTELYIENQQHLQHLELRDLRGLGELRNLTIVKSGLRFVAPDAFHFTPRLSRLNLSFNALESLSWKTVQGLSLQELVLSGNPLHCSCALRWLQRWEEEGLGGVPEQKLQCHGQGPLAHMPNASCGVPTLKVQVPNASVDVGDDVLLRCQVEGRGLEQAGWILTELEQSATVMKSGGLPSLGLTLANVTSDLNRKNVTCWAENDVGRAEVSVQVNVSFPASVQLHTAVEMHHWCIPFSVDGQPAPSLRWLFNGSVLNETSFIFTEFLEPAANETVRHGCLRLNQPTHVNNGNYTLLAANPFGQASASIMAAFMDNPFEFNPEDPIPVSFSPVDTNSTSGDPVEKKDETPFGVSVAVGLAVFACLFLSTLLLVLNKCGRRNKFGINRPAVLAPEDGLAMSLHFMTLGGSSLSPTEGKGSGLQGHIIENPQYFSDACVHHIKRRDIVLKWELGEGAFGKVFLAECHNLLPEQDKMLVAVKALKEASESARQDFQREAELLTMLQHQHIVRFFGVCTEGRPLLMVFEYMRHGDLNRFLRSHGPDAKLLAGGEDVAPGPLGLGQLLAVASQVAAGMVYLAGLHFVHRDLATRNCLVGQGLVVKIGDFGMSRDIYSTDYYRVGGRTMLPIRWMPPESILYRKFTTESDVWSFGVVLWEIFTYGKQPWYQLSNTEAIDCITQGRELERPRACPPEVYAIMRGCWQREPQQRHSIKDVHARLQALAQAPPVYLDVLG
RAC-alpha serine/threonine-protein kinase (Homo sapiens), sequence (P31749 whole entry): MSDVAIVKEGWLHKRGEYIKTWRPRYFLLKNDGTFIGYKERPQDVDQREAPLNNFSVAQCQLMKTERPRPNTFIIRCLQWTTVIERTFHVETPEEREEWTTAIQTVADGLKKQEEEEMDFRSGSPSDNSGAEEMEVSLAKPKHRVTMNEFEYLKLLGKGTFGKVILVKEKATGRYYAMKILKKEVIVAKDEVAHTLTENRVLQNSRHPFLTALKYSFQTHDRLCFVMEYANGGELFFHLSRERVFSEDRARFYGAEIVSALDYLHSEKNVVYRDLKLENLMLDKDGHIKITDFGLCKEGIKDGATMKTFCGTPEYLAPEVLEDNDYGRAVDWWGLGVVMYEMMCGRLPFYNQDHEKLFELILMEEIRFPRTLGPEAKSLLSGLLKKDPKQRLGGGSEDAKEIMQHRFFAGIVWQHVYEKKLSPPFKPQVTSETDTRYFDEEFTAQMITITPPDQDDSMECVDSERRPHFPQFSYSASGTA

Structure (SMILES): Oc1cccc(-c2cnc3[nH]cc(-c4ccccc4)c3c2)c1
- IC50 [1]: 2700 nM

Structure (SMILES): COc1cccc(-c2cnc3[nH]cc(-c4cccc(OC)c4)c3c2)c1
- IC50 [1]: 14600 nM

Structure (SMILES): COc1ccc(-c2cnc3[nH]cc(-c4ccc(OC)cc4)c3c2)cc1
- IC50 [1]: 1740 nM

Structure (SMILES): COc1ccc(-c2c[nH]c3ncc(-c4ccc(OC)c(OC)c4)cc23)cc1
- IC50 [1]: 460 nM

Structure (SMILES): O=C(O[C@@H]1Cc2c(O)cc(O)cc2O[C@@H]1c1cc(O)c(O)c(O)c1)c1cc(O)c(O)c(O)c1 [EPIGALOCATECHIN GALLATE]
- IC50 [2]: 330 nM

Structure (SMILES): COc1ccc(-c2cc3c(-c4ccccc4)c[nH]c3cn2)cc1
- IC50 [3]: 17 µM

Structure (SMILES): Oc1ccccc1-c1cnc2[nH]cc(-c3ccccc3)c2c1
- IC50 [1]: 3590 nM

Structure (SMILES): c1ccc(-c2cnc3[nH]cc(-c4ccccc4)c3c2)cc1
- IC50 [1]: 410 nM

Structure (SMILES): Oc1ccc(-c2cc3c(-c4ccccc4)c[nH]c3cn2)cc1
- IC50 [3]: 27.4 µM

Structure (SMILES): COc1ccc(OC)c(-c2cnc3[nH]cc(-c4ccc(OC)c(OC)c4)c3c2)c1
- IC50 [1]: 1670 nM

Structure (SMILES): COc1ccc(-c2cnc3[nH]cc(-c4ccccc4)c3c2)cc1
- IC50 [1]: 960 nM

Structure (SMILES): COc1ccc(-c2cnc3[nH]cc(-c4ccccc4)c3c2)cc1OC
- IC50 [1]: 3080 nM

Structure (SMILES): COc1ccccc1-c1cnc2[nH]cc(-c3ccccc3)c2c1
- IC50 [1]: 960 nM

Structure (SMILES): COc1ccc(-c2cnc3[nH]cc(-c4ccc(OC)c(OC)c4)c3c2)c(OC)c1
- IC50 [1]: 2880 nM

Structure (SMILES): COc1ccc(-c2cnc3[nH]cc(-c4ccccc4)c3c2)c(OC)c1
- IC50 [1]: 1170 nM

Structure (SMILES): COc1ccc(-c2cnc3[nH]cc(-c4ccc(OC)c(OC)c4)c3c2)cc1OC
- IC50 [1]: 57800 nM

Structure (SMILES): COc1cccc(-c2cnc3[nH]cc(-c4ccccc4)c3c2)c1
- IC50 [1]: 7490 nM

The next lines start with results.

- IC50 [1]: 330 nM
Structure (SMILES): Oc1ccc(-c2cnc3[nH]cc(-c4ccccc4)c3c2)cc1

- IC50 [1]: 280 nM
Structure (SMILES): COc1ccc(-c2c[nH]c3ncc(-c4ccc(OC)cc4OC)cc23)cc1

- IC50 [1]: 150 nM
Structure (SMILES): Oc1ccc(-c2cnc3[nH]cc(-c4ccccc4)c3c2)c(O)c1

- IC50 [1]: 14.3 nM
- Ki [6]: 7.6 nM
Structure (SMILES): Oc1ccc(-c2cnc3[nH]cc(-c4ccc(O)c(O)c4)c3c2)c(O)c1
- inhibition at 72 h, 1 µM [4]: 0%
- inhibition at 72 h, 10 µM [5]: 9%

- IC50 [1]: 39.1 nM
- Ki [6]: 12.1 nM
Structure (SMILES): Oc1ccc(O)c(-c2cnc3[nH]cc(-c4ccc(O)c(O)c4)c3c2)c1

- IC50 [7]: 43 nM
- IC50 [1]: 23.1 nM
- inhibition [8]: inactive
- inhibition [9]: inactive
- inhibition [10]: inactive
- inhibition [11]: inactive
- Ki [6]: 2.3 nM
Structure (SMILES): Oc1ccc(-c2cnc3[nH]cc(-c4ccc(O)cc4)c3c2)cc1
- inhibition at 72 h, 1 µM [4]: 51%
- inhibition at 72 h, 10 µM [5]: 95%

- IC50 [1]: 160 nM
Structure (SMILES): Oc1ccc(-c2cnc3[nH]cc(-c4ccccc4)c3c2)cc1O

- IC50 [7]: 5.5 nM
- IC50 [1]: 3 nM
- inhibition [8]: inactive
- inhibition [9]: inactive
- inhibition [10]: inactive
- inhibition [11]: inactive
- Ki [6]: < 2 nM
Structure (SMILES): Oc1ccc(-c2c[nH]c3ncc(-c4ccc(O)c(O)c4)cc23)cc1
- inhibition at 72 h, 1 µM [4]: 56%
- inhibition at 72 h, 10 µM [5]: 86%

- IC50 [1]: 105 nM
Structure (SMILES): Oc1cccc(-c2cnc3[nH]cc(-c4cccc(O)c4)c3c2)c1

- IC50 [7]: 32 nM
- IC50 [1]: 12.4 nM
- inhibition [12]: Active
- Ki [6]: 10.1 nM
Structure (SMILES): Oc1ccc(-c2cnc3[nH]cc(-c4ccc(O)c(O)c4)c3c2)cc1O
- inhibition at 72 h, 1 µM [4]: 2%
- inhibition at 72 h, 10 µM [5]: 11%

- IC50 [7]: 48 nM
- IC50 [1]: 11.7 nM
- inhibition [13]: < 50%
- inhibition [14]: < 50%
- inhibition [15]: < 50%
- inhibition [16]: < 50%
- inhibition [8]: inactive
- inhibition [9]: inactive
- inhibition [10]: inactive
- inhibition [11]: inactive
- Ki [6]: 5.5 nM
Structure (SMILES): Oc1ccc(-c2c[nH]c3ncc(-c4ccc(O)cc4O)cc23)cc1
- inhibition at 72 h, 1 µM [4]: 21%
- inhibition at 72 h, 10 µM [5]: 83%
